Test results reported in PMC11303713, “Allosteric inhibition of CFTR gating by CFTRinh-172 binding in the pore” (Nature Communications, 2024).
Where “and” joins values, the source holds several entries; their conditions need not be identical. Identical values can stand only once. Like-named read-outs stand apart in the source and are kept apart here.

Columns and labels:
Test in all cases: Inside-out patch-clamp inhibition of CFTR current by Inh-172
Assay type in all cases: cell-based
K95A-CFTR = target: T1, K95A-CFTR (Homo sapiens, UniProt P13569, K95A)
T1 construct: expressed in transfected cells; host or cells: CHO cells, pcDNA plasmid
Method: (§1) CHO cells were grown at 37 °C in Dulbecco’s modified Eagle’s medium supplemented with 10% (vol/vol) fetal bovine serum (Sigma-Aldrich, St. Louis, MO). pcDNA plasmids carrying the desired CFTR construct were transfected to CHO cells using PolyFect transfection reagent (Qiagen, Hilden, Germany) together with green fluorescence protein (GFP) cDNA (pEGFP-C3, Takara Bio, Shiga, Japan) that helps identify expression of CFTR. Cells were first incubated with the transfection reagents at 37 °C for 6-12 hours on sterile glass chips in 35-mm tissue culture dishes before transferred to 27 °C for incubation for 2–7 days. Primers for mutations were ordered from Integrated DNA Technologies (Coralville, IA) and were summarized in Supplementary Data. All CFTR mutants were prepared with QuikChange XL kit (Agilent, Santa Clara, CA) and sequenced at the DNA Core facility at University of Missouri-Columbia.
(§2) Patch-clamp pipettes were made from borosilicate capillary glass using a two-stage vertical puller (PP-81; Narishige, Amityville, NY). The pipette tips were fire polished with a homemade microforge to yield a pipette resistance of 2–5 MΩ when filled with a pipette solution containing (in mM): 140 NMDG-Cl (N-methyl-D-glucamine-chloride), 5 CaCl2, 2 MgCl2, and 10 HEPES, pH 7.4. For recordings, transfected cells on glass chips were transferred into a continuously perfused chamber on the stage of an inverted microscope (IX51; Olympus, Tokyo, Japan) with the perfusing solution containing (in mM): 150 NMDG-Cl, 2 MgCl2, 10 EGTA, 8 Tris, and 10 HEPES, pH 7.4. The membrane patch was excised to an inside-out configuration with a seal resistance >40 GΩ. CFTR currents were recorded with an amplifier (EPC9; HEKA, Holliston, MA), filtered through an eight-pole Bessel filter (LPF-8; Warner Instruments, Hamden, CT) at 100 Hz and digitized to a computer at a sampling rate of 500 Hz with Pulse software (version 8.53; HEKA). The membrane potential was held at −30 mV. Solution exchange was achieved by a fast solution change system (SF-77B; Warner Instruments). Inh-172 was obtained from the CFTR Chemical Compound Program supported by the Cystic Fibrosis Foundation. All experiments were performed at room temperature.
(§3) The steady state mean currents were measured in the Igor Pro software (version 8.0; WaveMetrics). The mean baseline currents were subtracted from the steady state mean currents before the data were used to determine the degrees of inhibition. The degrees of inhibition by CFTR inhibitor 172 were calculated based on the equation:1 %inhibition=1−IInh−172/I0X100% where I0 and Iinh−172 represent uninhibited and inhibited currents, respectively. The IC50 and Hill coefficients were obtained by fitting percent inhibition as a function of [Inh-172] with the Hill equation:2 %inhibition=base+(max−base)/1+xhalf/x^rate where max and base represent the […] percent inhibition by Inh-172, x represents the concentration of Inh-172, and the rate is the Hill coefficient. The estimated IC50 (xhalf) and Hill coefficients are listed in Table 1 as mean ± standard deviation. Each patch-clamp recording was made from a separate cell.

T1142I-CFTR = target: T2, T1142I-CFTR (Homo sapiens, UniProt P13569, T1142I); conditions: for inhibition at 0.1 µM: 100 nM Inh-172; for inhibition at 0.5 µM: 500 nM Inh-172; for inhibition at 1 µM: 1000 nM Inh-172; for inhibition at 5 µM: 5000 nM Inh-172; for inhibition at 10 µM: 10000 nM Inh-172
T2 construct: expressed in transfected cells; host or cells: CHO cells, pcDNA plasmid
Method: as §1, §2, §3

human WT-CFTR = target: T3, human WT-CFTR (Homo sapiens, UniProt P13569); conditions: for inhibition at 0.05 µM: 50 nM Inh-172; for inhibition at 0.1 µM: 100 nM Inh-172; for inhibition at 1 µM: 1000 nM Inh-172
T3 construct: the native wild-type CFTR construct without any deletion or mutation; expressed in transfected cells; host or cells: CHO cells, pcDNA plasmid
Method: as §1, §2, §3

[1] = target: T4, p-hTMD2-p-CFTR (pig CFTR with human CFTR's TMD2) (Sus scrofa, UniProt Q6PQZ2, A1172T/A789T/A900R/A913S/C878S/C883W/D1186N/D1223E/D816E/DEL1175-1175/F1181T/G899S/G926T/H1036Q/I1057V/I806L/K1013Q/K886G/K887N/K898H/L1018V/L1029M/L930M/L932F/M795V/N1178T/P890L/Q1176K/Q1198S/R1179K/R831K/R951H/S1010A/S1184Y/S783N/S889P/T1129R/T790A/T843A/V1006I/V1222T/V1228I/V798A/V838M/V854I/V870I/V983I)
T4 construct: expressed in transfected cells; host or cells: CHO cells, pcDNA plasmid
Method: as §1, §2, §3

[2] = 100 nM Inh-172, read-out: percent inhibition of current, Mean
[3] = 500 nM Inh-172, read-out: percent inhibition of current, Mean
[4] = 1000 nM Inh-172, read-out: percent inhibition of current, Mean
[5] = 1000 nM Inh-172, read-out: percent inhibition of current, individual cell
[6] = 5000 nM Inh-172, read-out: percent inhibition of current, Mean
[7] = 5000 nM Inh-172, read-out: percent inhibition of current, individual cell
[8] = 10000 nM Inh-172, read-out: percent inhibition of current, Mean
[9] = 10000 nM Inh-172, read-out: percent inhibition of current, individual cell
[10] = read-out: percent inhibition of current, Mean
[11] = read-out: percent inhibition of current, individual cell
[12] = 500 nM Inh-172, read-out: percent inhibition of current, individual cell

T4 sequence (Q6PQZ2 with tags, fused parts or gaps with the stated changes): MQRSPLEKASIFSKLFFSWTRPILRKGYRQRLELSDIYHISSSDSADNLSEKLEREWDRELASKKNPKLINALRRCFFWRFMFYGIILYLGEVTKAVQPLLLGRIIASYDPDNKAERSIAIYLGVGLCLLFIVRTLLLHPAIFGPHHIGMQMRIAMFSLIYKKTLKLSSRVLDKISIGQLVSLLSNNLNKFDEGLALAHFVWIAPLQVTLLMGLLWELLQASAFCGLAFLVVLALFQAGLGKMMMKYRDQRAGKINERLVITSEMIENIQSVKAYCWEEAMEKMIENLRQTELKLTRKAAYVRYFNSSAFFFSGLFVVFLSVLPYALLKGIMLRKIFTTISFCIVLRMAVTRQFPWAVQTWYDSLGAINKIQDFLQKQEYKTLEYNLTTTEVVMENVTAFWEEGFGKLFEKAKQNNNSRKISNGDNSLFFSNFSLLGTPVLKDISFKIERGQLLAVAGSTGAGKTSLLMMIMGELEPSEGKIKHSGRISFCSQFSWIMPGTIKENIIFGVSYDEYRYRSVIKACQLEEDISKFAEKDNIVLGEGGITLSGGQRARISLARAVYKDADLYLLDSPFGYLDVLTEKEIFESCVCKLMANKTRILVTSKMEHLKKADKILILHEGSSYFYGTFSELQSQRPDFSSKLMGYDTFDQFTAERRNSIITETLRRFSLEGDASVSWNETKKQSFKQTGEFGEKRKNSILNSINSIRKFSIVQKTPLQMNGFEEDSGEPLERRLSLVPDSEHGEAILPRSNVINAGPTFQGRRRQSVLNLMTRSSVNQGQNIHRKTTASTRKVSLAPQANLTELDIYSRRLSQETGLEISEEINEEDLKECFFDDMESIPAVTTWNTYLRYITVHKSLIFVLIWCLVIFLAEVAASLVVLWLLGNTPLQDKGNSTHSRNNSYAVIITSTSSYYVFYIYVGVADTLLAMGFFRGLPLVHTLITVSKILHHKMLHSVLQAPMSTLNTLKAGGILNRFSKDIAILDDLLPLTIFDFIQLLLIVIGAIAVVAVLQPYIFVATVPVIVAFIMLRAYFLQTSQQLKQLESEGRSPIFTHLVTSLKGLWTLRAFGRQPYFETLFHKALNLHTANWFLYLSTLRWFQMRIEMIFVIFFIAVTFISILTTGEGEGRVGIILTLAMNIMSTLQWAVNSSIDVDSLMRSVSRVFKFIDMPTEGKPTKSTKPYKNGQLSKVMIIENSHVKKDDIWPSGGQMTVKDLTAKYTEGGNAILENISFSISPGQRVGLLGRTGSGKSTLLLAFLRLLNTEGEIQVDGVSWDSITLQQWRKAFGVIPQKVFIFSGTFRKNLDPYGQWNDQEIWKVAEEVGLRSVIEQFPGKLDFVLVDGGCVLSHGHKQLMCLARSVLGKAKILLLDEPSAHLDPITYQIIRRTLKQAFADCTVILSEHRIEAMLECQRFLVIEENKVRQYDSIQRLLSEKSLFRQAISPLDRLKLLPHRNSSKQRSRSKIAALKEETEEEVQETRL
T2 sequence (P13569 whole entry T1142I): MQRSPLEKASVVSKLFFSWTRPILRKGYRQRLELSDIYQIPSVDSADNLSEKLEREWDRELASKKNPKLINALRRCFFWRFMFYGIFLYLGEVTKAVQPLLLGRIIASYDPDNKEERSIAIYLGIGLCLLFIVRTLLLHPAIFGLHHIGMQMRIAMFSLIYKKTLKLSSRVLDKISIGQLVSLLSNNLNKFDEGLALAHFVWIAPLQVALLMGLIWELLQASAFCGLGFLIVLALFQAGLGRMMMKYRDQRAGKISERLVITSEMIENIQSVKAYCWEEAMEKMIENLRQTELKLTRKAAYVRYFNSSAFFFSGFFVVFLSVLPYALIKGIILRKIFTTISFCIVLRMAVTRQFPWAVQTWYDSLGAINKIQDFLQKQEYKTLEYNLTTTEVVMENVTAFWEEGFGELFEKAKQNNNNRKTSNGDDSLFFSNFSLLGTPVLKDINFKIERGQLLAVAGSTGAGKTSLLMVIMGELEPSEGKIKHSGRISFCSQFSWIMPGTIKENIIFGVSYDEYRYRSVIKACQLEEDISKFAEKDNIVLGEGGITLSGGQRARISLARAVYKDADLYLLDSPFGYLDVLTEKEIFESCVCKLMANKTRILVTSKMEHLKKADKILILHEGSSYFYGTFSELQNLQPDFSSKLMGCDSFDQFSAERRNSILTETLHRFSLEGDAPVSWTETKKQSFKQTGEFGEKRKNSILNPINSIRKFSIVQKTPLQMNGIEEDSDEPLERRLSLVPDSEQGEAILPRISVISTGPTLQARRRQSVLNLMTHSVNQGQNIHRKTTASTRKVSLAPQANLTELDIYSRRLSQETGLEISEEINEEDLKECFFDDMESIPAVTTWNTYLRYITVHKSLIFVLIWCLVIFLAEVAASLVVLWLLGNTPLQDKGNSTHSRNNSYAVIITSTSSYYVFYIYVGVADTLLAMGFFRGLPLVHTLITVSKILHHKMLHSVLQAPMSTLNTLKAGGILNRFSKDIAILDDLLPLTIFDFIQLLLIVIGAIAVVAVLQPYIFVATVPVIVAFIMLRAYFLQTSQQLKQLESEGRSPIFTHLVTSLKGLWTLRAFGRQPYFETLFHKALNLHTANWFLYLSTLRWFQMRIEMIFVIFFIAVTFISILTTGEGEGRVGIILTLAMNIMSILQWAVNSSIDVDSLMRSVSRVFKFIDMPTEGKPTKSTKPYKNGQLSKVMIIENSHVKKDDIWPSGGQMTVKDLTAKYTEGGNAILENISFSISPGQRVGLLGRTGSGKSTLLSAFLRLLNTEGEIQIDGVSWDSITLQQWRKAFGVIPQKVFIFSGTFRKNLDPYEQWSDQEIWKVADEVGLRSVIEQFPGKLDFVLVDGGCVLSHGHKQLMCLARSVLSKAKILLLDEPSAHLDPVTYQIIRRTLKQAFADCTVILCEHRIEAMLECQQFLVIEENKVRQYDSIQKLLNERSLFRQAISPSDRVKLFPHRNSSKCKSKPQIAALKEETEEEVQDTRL
T3 sequence (P13569 whole entry): as the sequence (P13569 whole entry T1142I) above, with I1142T counted along it
T1 sequence (P13569 whole entry K95A): as the sequence (P13569 whole entry T1142I) above, with K95A, I1142T counted along it

O=C(O)c1ccc(/C=C2\SC(=S)N(c3cccc(C(F)(F)F)c3)C2=O)cc1 [Inh-172, CFTRinh-172]
percent inhibition of current, individual cell (K95A-CFTR; 100 nM Inh-172): 10.0 and 13.0 and 19.0 and 9.0 and 7.0 and 15.0
inhibition at 0.1 µM (K95A-CFTR; [2]): 12.2%
inhibition at 0.5 µM (K95A-CFTR; 0.5 µM Inh-172, read-out: K95A-CFTR current inhibited): ~40%
percent inhibition of current, individual cell (K95A-CFTR; 500 nM Inh-172): 23.0 and 38.0 and 46.0 and 31.0 and 29.0 and 42.0
inhibition at 0.5 µM (K95A-CFTR; [3]): 34.8%
percent inhibition of current, individual cell (K95A-CFTR; 1000 nM Inh-172): 58.0 and 62.0 and 47.0 and 59.0
inhibition at 1 µM (K95A-CFTR; [4]): 55.8%
inhibition at 1 µM (K95A-CFTR; [5]): 51%
percent inhibition of current, individual cell (K95A-CFTR; 5000 nM Inh-172): 88.0 and 84.0 and 81.0 and 85.0
inhibition at 5 µM (K95A-CFTR; [6]): 84.2%
inhibition at 5 µM (K95A-CFTR; [7]): 78%
percent inhibition of current, individual cell (K95A-CFTR; 10000 nM Inh-172): 95.0 and 94.0 and 93.0 and 90.0
inhibition at 10 µM (K95A-CFTR; [8]): 92.3%
inhibition at 10 µM (K95A-CFTR; [9]): 89%
Hill Coefficient (K95A-CFTR; K95A): 0.98 ± 0.05
IC50 (K95A-CFTR; K95A): 850 ± 50 nM
IC50 (K95A-CFTR; K95A, earlier manuscript version, peer review file): 852 nM
increase of IC50 by K95A mutation vs WT (K95A-CFTR; cho cells inside-out patch): 10 fold
inhibition at 0.1 µM (T1142I-CFTR; [10]): 7.2%
inhibition at 0.1 µM (T1142I-CFTR; [11]): 5%
inhibition at 0.5 µM (T1142I-CFTR; [10]): 22.5%
inhibition at 0.5 µM (T1142I-CFTR; [11]): 22%
inhibition at 1 µM (T1142I-CFTR; [10]): 39.3%
inhibition at 1 µM (T1142I-CFTR; [11]): 38%
inhibition at 5 µM (T1142I-CFTR; [10]): 78.3%
inhibition at 5 µM (T1142I-CFTR; [11]): 78%
inhibition at 10 µM (T1142I-CFTR; [10]): 90.7%
inhibition at 10 µM (T1142I-CFTR; [11]): 90%
Hill Coefficient (T1142I-CFTR; T1142I): 1.12 ± 0.05
IC50 (T1142I-CFTR; T1142I): 1490 ± 70 nM
inhibition at 0.025 µM (human WT-CFTR; 25 nM Inh-172, read-out: percent inhibition of current, Mean): 27.2%
inhibition at 0.05 µM (human WT-CFTR; [10]): 33.5%
inhibition at 0.05 µM (human WT-CFTR; [11]): 28%
inhibition at 0.1 µM (human WT-CFTR; [10]): 60.2%
inhibition at 0.1 µM (human WT-CFTR; [11]): 53%
inhibition at 0.5 µM (human WT-CFTR; 0.5 µM Inh-172, read-out: WT-CFTR current inhibited): 80%
inhibition at 0.5 µM (human WT-CFTR; [3]): 81%
inhibition at 0.5 µM (human WT-CFTR; [12]): 75%
inhibition at 1 µM (human WT-CFTR; [10]): 91.4%
inhibition at 1 µM (human WT-CFTR; [11]): 88%
inhibition at 10 µM (human WT-CFTR; [9]): 89%
Hill Coefficient (human WT-CFTR; Human WT): 0.88 ± 0.09
Hill Coefficient (human WT-CFTR; Human WT + 200 nM VX-770): 1.07 ± 0.10
IC50 (human WT-CFTR; Human WT + 200 nM VX-770): 250 ± 20 nM
Hill Coefficient (human WT-CFTR; Human WT + 1 µM VX-770): 0.98 ± 0.02
IC50 (human WT-CFTR; Human WT + 1 µM VX-770): 420 ± 10 nM
IC50 (human WT-CFTR; Human WT, inside-out patch, -30 mV, 2 mM ATP, Hill fit): 80 ± 10 nM
IC50 (human WT-CFTR; human CFTR, value of earlier manuscript version quoted in peer review file): 83 nM
percent inhibition of current, individual cell ([1]; 50 nM Inh-172): 48.0 and 39.0
inhibition at 0.05 µM ([1]; 50 nM Inh-172, read-out: percent inhibition of current, Mean): 46.3%
inhibition at 0.05 µM ([1]; 50 nM Inh-172, read-out: percent inhibition of current, individual cell): 52%
percent inhibition of current, individual cell ([1]; 100 nM Inh-172): 60.0 and 64.0 and 67.0 and 62.0 and 55.0
inhibition at 0.1 µM [1, 2]: 63.6%
inhibition at 0.1 µM ([1]; 100 nM Inh-172, read-out: percent inhibition of current, individual cell): 75%
percent inhibition of current, individual cell ([1]; 500 nM Inh-172): 71.0 and 78.0 and 69.0 and 61.0
inhibition at 0.5 µM [1, 3]: 72%
inhibition at 0.5 µM [1, 12]: 81%
percent inhibition of current, individual cell ([1]; 1000 nM Inh-172): 84.0
inhibition at 1 µM [1, 4]: 79.8%
inhibition at 1 µM [1, 5]: 85%
percent inhibition of current, individual cell ([1]; 5000 nM Inh-172): 97.0 and 95.0
inhibition at 5 µM [1, 6]: 96%
inhibition at 5 µM [1, 7]: 96%
percent inhibition of current, individual cell ([1]; 10000 nM Inh-172): 98.0 and 100.0 and 90.0 and 93.0 and 91.0
inhibition at 10 µM [1, 8]: 95.6%
inhibition at 10 µM [1, 9]: 99%
Hill Coefficient ([1]; p-hTMD2-p): 0.54 ± 0.08
IC50 ([1]; p-hTMD2-p): 60 ± 20 nM
IC50 ([1]; pig CFTR with human TMD2, earlier manuscript version, peer review file): 55 nM
